Entries after “also recorded” stand apart in the source; their conditions may differ. Read-outs that look alike come from different tables or passages of the source.
Experiments:
Cav3.2 = Cav3.2 (Homo sapiens (Human), UniProt O95180); test: In vitro patch clamp assay (SyncroPatch 384PE); format: cell-based; conditions: HEK293 cells
Outline: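 Whole-cell patch clamp on HEK293 cells kept under G418 selection, run on the automated SyncroPatch 384PE. Cells were detached with Accutase, allowed 10 min recovery at 37 °C, and resuspended in HB-PS extracellular buffer before membrane currents were recorded.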

Miro1 = test: Rescue of Miro1 deficit in P301L tau donor fibroblasts (FCCP challenge, Miro1 immunocytochemistry); format: cell-based, human
Procedure: The compound of Example 15 rescued Miro1 deficit in P301L tau donor at risk for developing frontotemporal dementia (FTD). Method: A fibroblast was obtained from a non-symptomatic at risk carrier of the pathogenic P301L mutation in the MAPT/Tau gene, a highly penetrant risk factor for frontotemporal dementia (FTD). NINDS line ID: ND32956, collected from a person. Fibroblasts were seeded into 96-well assay plates. After 24 hours, cells were pre-treated with either vehicle (DMSO) or a dose-response of Example 15 compound. After 6 hrs of pre-treatment, cells were challenged with the mitochondrial stressor FCCP for 14 hours. After 14 hours of challenge, cells were fixed in paraformaldehyde and a standard immunocytochemistry protocol was followed to stain for Miro1 using a specific antibody. Images were acquired on the Yokogawa CQ1 confocal high-content imaging platform and the signal from the Miro1 antibody was quantified. Average Miro1 signal intensity was quantified from ˜400 cells/condition.
Similar to the method illustrated in Example 64, a Miro1 ratio could be calculated based on the Miro1 level after treatment of fibroblasts with FCCP compared with a control Miro1 level measured from fibroblasts that were not treated.

[1] = In vivo pharmacokinetics in rats; design: species or system Sprague-Dawley rats
Procedure: Fasted male Sprague-Dawley rats between 6 to 8 weeks of age were dosed with calcium channel antagonists of the present disclosure to evaluate in vivo pharmacokinetics. Each compound was formulated in 5% DMAC+5% Solutol HS15+90% Saline to yield a solution for dosing. The rats were dosed intravenously (IV) at 1 mg/kg (1 mL/kg) via foot dorsal vein (N=3) or orally (PO) at 10 mg/kg (10 mL/kg) via oral gavage (N=3).
Blood collection: The animals were restrained manually, and approximately 200 μL blood/time point was collected into pre-cooled EDTA-K2 tubes via jugular vein and put on wet ice. The blood sample was centrifuged at 4° C. (2000 g, 5 min) to obtain plasma within 15 min after sample collection. The plasma samples were stored at approximately −70° C. until analysis.

[2] = In vivo pharmacokinetics in dogs; conditions: dog, plasma; male beagle dogs, 1 mg/kg IV and 3 mg/kg PO; read-out: oral bioavailability (F)
Procedure: In vivo experiments were performed in dogs to evaluate certain calcium channel antagonists of the present disclosure. For instance, Example 15 was evaluated in adult male non-naïve beagle dogs (N=6), 8-10 kg, at 1 mg/kg IV and 3 mg/kg PO. The dogs were given free access to food and water for the IV group, were fasted overnight and fed 4 hr post-dosing for the PO group. The IV group was administered Example 15 via cephalic vein injection. The PO group was administered 3 mg/kg Example 15 by oral gavage. Dosing formulations were prepared at 1 mg/mL in 5% dimethylacetamide, 5% Solutol HS 15, 90% saline prior to use.
Blood collection: The animals were restrained manually, and approximately 0.5 mL blood/time point was collected via cephalic vein into pre-cold EDTA-K2 tubes. Blood samples were chilled on wet ice until centrifuged at 4° C. to obtain plasma within 15 minutes of sample collection.

[3] = Brain penetration in mice; format: in vivo; conditions: male C57BL/6 mice; for concentration at 4 h: mouse, brain, 4 hours post-dose
Procedure: Male C57BL/6 mice at 6-8 weeks were dosed once with Example 15 in two experiments (N=3 per timepoint) at 1 mg/kg IV or 10 mg/kg PO, and then compound concentration was measured at various times up to 24 hours. Dosing solutions were prepared of Example 15 in 0.2 mg/mL (IV) or 1 mg/mL (PO) in 5% dimethylacetamide, 5% Solutol HS 15, 90% saline solution prior to use. Compound was administered either IV by tail vein injection or PO by oral gavage.
Blood collection: The animal was restrained manually at the designated time points, approximately 110 μL of blood sample was collected via facial vein into K2EDTA tubes. Blood sample was put on ice and centrifuged at 2000 g for 5 mins to obtain plasma sample within 15 minutes.
Brain collection: After the blood collection, the animals were euthanized via CO2. The whole brain was collected, rinsed with cold saline, dried on filtrate paper, weighed, and snap frozen by placing into dry-ice.
The brain penetrance of Example 15 was calculated using mouse plasma/brain PK and relative mouse plasma and brain homogenate binding. […] For instance, at 4 hours post-dose: Example 15 brain concentration>100 ng/mL (IV); Example 15 brain concentration>1000 ng/mL (PO).

[4] = rat, compared to Example 16 of U.S. Pat. No. 7,875,636
[5] = rat, plasma, male Sprague-Dawley rats, 1 mg/kg IV, read-out: Mean (ng/mL) after 1 mg/kg IV dose
[6] = rat, plasma, male Sprague-Dawley rats, 10 mg/kg PO, read-out: Mean (ng/mL) after 10 mg/kg PO dose

Chain of Cav3.2 (O95180 whole entry): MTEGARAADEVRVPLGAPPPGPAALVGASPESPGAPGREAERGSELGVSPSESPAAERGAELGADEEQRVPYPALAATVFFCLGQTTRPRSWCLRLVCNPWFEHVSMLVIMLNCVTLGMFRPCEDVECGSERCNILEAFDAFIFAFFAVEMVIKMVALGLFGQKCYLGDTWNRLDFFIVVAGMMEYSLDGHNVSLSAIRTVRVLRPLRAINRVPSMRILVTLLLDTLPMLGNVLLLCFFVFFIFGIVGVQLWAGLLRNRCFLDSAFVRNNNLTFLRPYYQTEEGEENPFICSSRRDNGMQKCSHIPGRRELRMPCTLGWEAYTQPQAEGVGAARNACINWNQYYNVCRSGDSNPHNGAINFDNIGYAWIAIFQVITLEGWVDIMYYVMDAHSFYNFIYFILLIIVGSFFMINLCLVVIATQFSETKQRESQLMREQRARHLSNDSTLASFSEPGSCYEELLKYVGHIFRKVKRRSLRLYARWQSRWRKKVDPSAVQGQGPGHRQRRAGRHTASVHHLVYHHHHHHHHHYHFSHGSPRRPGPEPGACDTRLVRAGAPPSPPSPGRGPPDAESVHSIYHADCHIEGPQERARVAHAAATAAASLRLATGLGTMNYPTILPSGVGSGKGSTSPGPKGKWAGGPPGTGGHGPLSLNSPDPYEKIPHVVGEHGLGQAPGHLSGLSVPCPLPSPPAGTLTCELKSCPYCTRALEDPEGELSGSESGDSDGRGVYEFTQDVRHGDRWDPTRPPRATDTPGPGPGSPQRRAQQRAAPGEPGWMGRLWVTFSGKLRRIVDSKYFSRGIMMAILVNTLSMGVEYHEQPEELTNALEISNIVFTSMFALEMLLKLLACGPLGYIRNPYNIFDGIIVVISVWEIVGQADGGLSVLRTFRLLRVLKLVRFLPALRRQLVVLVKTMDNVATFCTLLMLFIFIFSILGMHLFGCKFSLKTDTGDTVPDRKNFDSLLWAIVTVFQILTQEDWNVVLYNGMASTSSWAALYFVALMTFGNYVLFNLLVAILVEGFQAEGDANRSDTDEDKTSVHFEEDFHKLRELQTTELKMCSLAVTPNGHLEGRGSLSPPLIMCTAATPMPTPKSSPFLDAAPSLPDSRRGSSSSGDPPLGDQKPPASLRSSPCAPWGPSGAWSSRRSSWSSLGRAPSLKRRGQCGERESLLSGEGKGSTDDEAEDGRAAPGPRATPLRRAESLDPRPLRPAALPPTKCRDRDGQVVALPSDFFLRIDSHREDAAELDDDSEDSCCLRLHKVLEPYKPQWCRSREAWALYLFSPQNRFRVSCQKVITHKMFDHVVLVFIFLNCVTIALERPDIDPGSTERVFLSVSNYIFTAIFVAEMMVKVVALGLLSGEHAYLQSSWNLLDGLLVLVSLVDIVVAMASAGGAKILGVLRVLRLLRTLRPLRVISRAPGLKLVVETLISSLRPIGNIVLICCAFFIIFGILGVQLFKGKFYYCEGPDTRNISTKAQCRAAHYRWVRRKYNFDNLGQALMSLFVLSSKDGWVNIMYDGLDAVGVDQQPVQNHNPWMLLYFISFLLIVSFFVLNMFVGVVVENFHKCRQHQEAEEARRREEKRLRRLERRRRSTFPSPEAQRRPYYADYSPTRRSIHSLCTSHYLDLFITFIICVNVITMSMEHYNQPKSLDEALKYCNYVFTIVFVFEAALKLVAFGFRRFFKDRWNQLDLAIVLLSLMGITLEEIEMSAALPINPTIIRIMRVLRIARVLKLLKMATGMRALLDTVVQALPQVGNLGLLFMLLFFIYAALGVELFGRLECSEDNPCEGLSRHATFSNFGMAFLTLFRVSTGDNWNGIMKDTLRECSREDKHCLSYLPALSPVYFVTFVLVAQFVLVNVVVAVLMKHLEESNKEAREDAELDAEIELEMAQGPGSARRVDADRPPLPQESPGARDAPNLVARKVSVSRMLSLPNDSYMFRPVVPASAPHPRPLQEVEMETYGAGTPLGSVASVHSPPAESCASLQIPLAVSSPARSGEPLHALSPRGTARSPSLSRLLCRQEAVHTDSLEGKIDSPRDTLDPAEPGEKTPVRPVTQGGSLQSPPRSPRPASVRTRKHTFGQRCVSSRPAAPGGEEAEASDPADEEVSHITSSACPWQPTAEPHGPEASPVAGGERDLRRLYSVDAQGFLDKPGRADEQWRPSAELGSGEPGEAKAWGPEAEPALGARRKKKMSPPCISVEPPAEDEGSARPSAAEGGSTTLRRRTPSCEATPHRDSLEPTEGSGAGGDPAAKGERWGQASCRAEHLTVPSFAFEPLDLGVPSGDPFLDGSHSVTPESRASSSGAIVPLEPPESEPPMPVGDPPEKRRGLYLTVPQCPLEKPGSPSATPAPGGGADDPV

Compound: C[C@@H](NC(=O)Cc1ccc(C(F)(F)F)cc1)c1cc2cnn(CC(F)(F)F)c2cn1 [Example 15, (R)—N-(1-(1-(2,2,2-trifluoroethyl)-1H-pyrazolo[3,4-c]pyridin-5-yl)ethyl)-2-(4-(trifluoromethyl)phenyl)acetamide]
- IC50 (Cav3.2): 163 nM
- rescue of Miro1 deficit (Miro1; P301L tau donor fibroblasts in response to FCCP): completely rescued Miro1 reduction deficit; also recorded: dose-dependent rescue of Miro1 deficit
- IC50 (Miro1; P301L tau donor fibroblasts, 6 hrs pre-treatment, FCCP 14 hours, read-out: IC50, rescue of Miro1 reduction deficit): 584 nM
- Mean (ng/mL) after 1 mg/kg IV dose ([1]; male Sprague-Dawley rats, 1 mg/kg IV, 24 hr, BQL = below quantitation level): BQL
- AUC [1, 4]: higher
- Cmax [1, 4]: higher
- half-life (t1/2) [1, 4]: about two-fold higher
- concentration at 0.25 h [1, 5]: 890 ng/mL
- concentration at 0.5 h [1, 5]: 764 ng/mL
- concentration at 1 h [1, 5]: 621 ng/mL
- concentration at 2 h [1, 5]: 423 ng/mL
- concentration at 4 h [1, 5]: 193 ng/mL
- concentration at 8 h [1, 5]: 26.3 ng/mL
- concentration at 12 h [1, 5]: 4.42 ng/mL
- concentration at 0.25 h [1, 6]: 4110 ng/mL
- concentration at 0.5 h [1, 6]: 4510 ng/mL
- concentration at 1 h [1, 6]: 4710 ng/mL
- concentration at 2 h [1, 6]: 5440 ng/mL
- concentration at 4 h [1, 6]: 4070 ng/mL
- concentration at 8 h [1, 6]: 1240 ng/mL
- concentration at 12 h [1, 6]: 329 ng/mL
- concentration at 24 h ([1]; rat, plasma, male Sprague-Dawley rats, 10 mg/kg PO, 24 hr, read-out: Mean (ng/mL) after 10 mg/kg PO dose): 2.49 ng/mL
- bioavailability [2]: > 50%
- brain penetration ([3]; IV and PO experiments): measurable brain penetration
- concentration at 4 h ([3]; 1 mg/kg IV): > 100 ng/mL
- concentration at 4 h ([3]; 10 mg/kg PO): > 1000 ng/mL
